Test: Example 1: phase 3 trial, enavogliflozin 0.3 mg once a day as monotherapy vs placebo for 24 weeks in patients with type 2 diabetes (HbA1c, FPG, C-peptide, body weight, lipids, blood pressure, HOMA, UACR, UGCR, adiponectin, leptin, safety)
Format: in vivo, human
Experimental: When a subject voluntarily gave written consent to participate in this clinical trial, a screening test was conducted. […] However, when the administration of a hypoglycemic agent was interrupted before the clinical trial Visit 1 (screening), at least an 8-week washout period, including the discontinuation period, was required, and during this period, a stable diet and exercise program was followed. Naïve patients were screened without a separate washout period, and the criteria for naïve patients were defined as patients who had not been administered hypoglycemic agents within 24 weeks prior to the date of obtaining written consent. […] In addition, they were instructed to maintain regular exercise and dietary control starting from 8 weeks prior to screening without changing their daily life patterns during the clinical trial period.

## OC[C@H]1O[C@@H](c2cc(Cc3ccc(C4CC4)cc3)c(Cl)c3c2CCO3)[C@H](O)[C@@H](O)[C@@H]1O [Enavogliflozin, (2S,3R,4R,5S,6R)-2-(7-chloro-6 (4-cyclopropylbenzyl)-2,3-dihydrobenzofuran-4-yl)-6-(hydroxymethyl)tetrahydro-2H-pyran-3,4,5-triol]
Week 6
  fasting C-peptide, Mean (SD): 0.66 ng/mL
  systolic blood pressure change from baseline, LS mean: −5.38 mmHg
  systolic blood pressure change from baseline, Mean: −4.81 mmHg
  total cholesterol change from baseline, LS mean: 5.76 mg/dL
  total cholesterol change from baseline, Mean: 5.75 mg/dL
  total cholesterol, Mean: 166.11 mg/dL
  triglycerides change from baseline, LS mean: -5.05 mg/dL
  triglycerides change from baseline, Mean: -1.21 mg/dL
  triglycerides, Mean: 116.13 mg/dL
Week 6, vs placebo
  FPG change from baseline, LS mean difference: -26.91 mg/dL
  HDL-C change from baseline, LS mean difference: 1.89 mg/dL
  HOMA-IR change from baseline, LS mean difference: −1.81
  HOMA-β change from baseline, LS mean difference: 3.30
  HbA1c change from baseline, LS mean difference: −0.52 % p
  LDL-C change from baseline, LS mean difference: 0.64 mg/dL
  Odds ratio for achieving HbA1c<6.5%: 3.29
  Odds ratio for achieving HbA1c<7%: 6.55
  Odds ratio for achieving therapeutic response: 12.84
  UACR change from baseline, LS mean difference: 7.96 g/kg
  UGCR change from baseline, LS mean difference: 52.97 mg/mg
  adiponectin change from baseline, LS mean difference: 0.26 µg/mL
  body weight change from baseline, LS mean difference: -1.45 kg
  diastolic blood pressure change from baseline, LS mean difference: −2.43 mmHg
  fasting C-peptide change from baseline, LS mean difference: -0.11 ng/mL
  leptin change from baseline, LS mean difference: -2.89 ng/mL
  systolic blood pressure change from baseline, LS mean difference: −4.07 mmHg
  total cholesterol change from baseline, LS mean difference: 1.95 mg/dL
  triglycerides change from baseline, LS mean difference: -17.69 mg/dL
Week 6, vs placebo, listed as enavogliflozin
  HbA1c change from baseline, LS mean difference: -0.52 % p
Week 12
  Body weight, Mean: 66.12 kg
  Diastolic blood pressure, Mean: 72.83 mmHg
  FPG change from baseline, LS mean (SE): −30.66(2.93) mg/dL
  FPG change from baseline, Mean (SD): −29.34(20.90) mg/dL
  FPG, Mean (SD): 111.66(13.55) mg/dL
  HDL-C change from baseline, LS mean: 2.35 mg/dL
  HDL-C change from baseline, Mean: 2.22 mg/dL
  HDL-C, Mean: 54.14 mg/dL
  HbA1c change from baseline, LS mean (SE): −0.84(0.07) % p
  HbA1c change from baseline, Mean (SD): −0.80(0.55) % p
  HbA1c, Mean (SD): 6.84(0.53) %
  LDL-C change from baseline, LS mean: -2.31 mg/dL
  LDL-C change from baseline, Mean: -0.09 mg/dL
  LDL-C, Mean: 95.38 mg/dL
  Subjects achieving HbA1c target of <6.5%: 22(26.83) %
  Subjects achieving HbA1c target of <7%: 54(65.85) %
  Subjects achieving therapeutic glycemic response (HbA1c change >0.5% or HbA1c<7%): 70(85.37) %
  Systolic blood pressure, Mean: 122.06 mmHg
  body weight change from baseline, LS mean: -2.59 kg
  body weight change from baseline, Mean: -2.65 kg
  diastolic blood pressure change from baseline, LS mean: −3.82 mmHg
  diastolic blood pressure change from baseline, Mean: −3.40 mmHg
  fasting C-peptide, Mean (SD): 0.64 ng/mL
  systolic blood pressure change from baseline, LS mean: −6.37 mmHg
  systolic blood pressure change from baseline, Mean: −5.78 mmHg
  total cholesterol change from baseline, LS mean: 4.75 mg/dL
  total cholesterol change from baseline, Mean: 5.99 mg/dL
  total cholesterol, Mean: 167.40 mg/dL
  triglycerides change from baseline, LS mean: 6.37 mg/dL
  triglycerides change from baseline, Mean: 2.90 mg/dL
  triglycerides, Mean: 120.34 mg/dL
Week 12, vs placebo
  FPG change from baseline, LS mean difference: -32.26 mg/dL
  HDL-C change from baseline, LS mean difference: 2.36 mg/dL
  HOMA-IR change from baseline, LS mean difference: −1.72
  HOMA-β change from baseline, LS mean difference: 12.09
  HbA1c change from baseline, LS mean difference: −0.71 % p
  LDL-C change from baseline, LS mean difference: -6.00 mg/dL
  Odds ratio for achieving HbA1c<6.5%: 7.58
  Odds ratio for achieving HbA1c<7%: 6.53
  Odds ratio for achieving therapeutic response: 14.77
  UACR change from baseline, LS mean difference: -15.16 g/kg
  UGCR change from baseline, LS mean difference: 51.21 mg/mg
  adiponectin change from baseline, LS mean difference: 0.67 µg/mL
  body weight change from baseline, LS mean difference: -1.66 kg
  diastolic blood pressure change from baseline, LS mean difference: −2.33 mmHg
  fasting C-peptide change from baseline, LS mean difference: -0.12 ng/mL
  leptin change from baseline, LS mean difference: -3.17 ng/mL
  systolic blood pressure change from baseline, LS mean difference: −3.06 mmHg
  total cholesterol change from baseline, LS mean difference: -4.04 mg/dL
  triglycerides change from baseline, LS mean difference: -10.37 mg/dL
Week 18
  Body weight, Mean: 65.32 kg
  Diastolic blood pressure, Mean: 72.60 mmHg
  FPG change from baseline, LS mean (SE): −31.97(3.23) mg/dL
  FPG change from baseline, Mean (SD): −30.52(22.34) mg/dL
  FPG, Mean (SD): 110.48(14.49) mg/dL
  HDL-C change from baseline, LS mean: 4.18 mg/dL
  HDL-C change from baseline, Mean: 3.62 mg/dL
  HDL-C, Mean: 55.55 mg/dL
  HbA1c change from baseline, LS mean (SE): −0.81(0.09) % p
  HbA1c change from baseline, Mean (SD): −0.77(0.67) % p

Reference: patent US20260130933A1, “PHARMACEUTICAL COMPOSITION FOR PREVENTION OR TREATMENT OF NEPHROPATHY AND/OR DIABETES MELLITUS, COMPRISING ENAVOGLIFLOZIN” (DAEWOONG PHARMACEUTICAL CO., LTD., priority 2022, published 2026)
